Earlier results as cited in PMC6376154 (International Journal for Parasitology: Drugs and Drug …, 2019).
Where two headings read alike, the source gives them in different places.

Tested on: P. falciparum 3D7 asexual blood stage
Conditions: cited from earlier work
[1] = MMV Malaria Box data sheet, ref MMV data sheets
[2] = MMV Malaria Box data sheet, ref MMV data sheets, read-out: EC50_nM
[3] = source GNF, ref ChEMBL_NTD, read-out: CHEMBL EC50
[4] = source GSK, ref ChEMBL_NTD, read-out: CHEMBL EC50
[5] = ChEMBL-NTD value per source (GNF, GSK, StJude), several values in a cell follow the order of the sources, read-out: CHEMBL EC50
[6] = MMV Malaria Box sheet, ref MMV data sheets
[7] = MMV Malaria Box data sheet (supplement mmc2.xls), ref MMV data sheet
[8] = value(s) per source (GSK, GNF, StJude), separated by semicolon, ref ChEMBL-NTD, read-out: CHEMBL EC50
[9] = MMV Malaria Box sheet, ref MMV data sheets, read-out: EC50_nM
[10] = MMV Malaria Box data sheet (supplement mmc2.xls), ref MMV data sheet, read-out: EC50_nM
[11] = source StJude, ref ChEMBL_NTD, read-out: CHEMBL EC50

## CCOC(=O)c1c(NC(=O)c2ccccc2)sc2c(O)c(CN(CC)CC)ccc12 [MMV665831]
[1]
  percent_inh @ 5 uM: 96%
[2]
  EC50: 205 nM
[3]
  EC50: 267 nM
[4]
  EC50: 969 nM

## O=C(Nc1ccc(-c2nc3ccccc3[nH]2)cc1)c1ccc(Cl)c(Cl)c1 [MMV665840]
[5]
  EC50: 523 nM

## Oc1c2c(nc3ccccc13)CCCC2 [MMV665843]
[6]
  percent_inh @ 5 uM: 82%
[3]
  EC50: 628 nM

## Oc1ccc(Cl)cc1CNc1nc2ccccc2[nH]1 [MMV665850]
[1]
  percent_inh @ 5 uM: 95%
[3]
  EC50: 921 nM

## O=C(Nc1ccc(Cl)c(Cl)c1)Nc1ccc(Cl)c(Cl)c1 [MMV665852]
[5]
  EC50: 1030 nM

## CCOc1c(Cl)cc(CNC(C)C(O)c2ccccc2)cc1OC (stereo not shown) [MMV665857]
[7]
  percent_inh @ 5 uM: 98%
[8]
  EC50: 1650 nM

## CCCCNc1nc(NC(C)(C)C)nc(NC(C)(C)C)n1 [MMV665864]
[5]
  EC50: 2160 nM

## Cc1cc(Nc2ccc(C)c(Cl)c2)n2nc(C(F)(F)F)nc2n1 [MMV665874]
[1]
  percent_inh @ 5 uM: 98%
[2]
  EC50: 6.71 nM
[4]
  EC50: 15.8 nM

## Cn1c(=O)n(C)c2cc(CNCCNc3ccnc4cc(Cl)ccc34)ccc21 [MMV665875]
[5]
  EC50: 140 nM

## CCC(c1ccccc1)c1nn2c(-c3cccs3)nnc2s1 (stereo not shown) [MMV665876]
[1]
  percent_inh @ 5 uM: 99%
[2]
  EC50: 259 nM
[4]
  EC50: 167 nM

## COc1cccc(NC(=O)[C@H](C(C)C)n2c(=O)[nH]c3ccccc3c2=O)c1 [MMV665878]
[1]
  percent_inh @ 5 uM: 99%
[2]
  EC50: 139 nM
[4]
  EC50: 266 nM

## CC(C)(C)C(=O)Nc1ccc(C(=O)Nc2cccc(-c3nc4ccccc4[nH]3)c2)cc1 [MMV665879]
[7]
  percent_inh @ 5 uM: 91%
[8]
  EC50: 282 nM

## COc1ccc(CNC(=O)c2cc3c(=O)n4ccccc4nc3n(CCc3ccccc3)c2=N)cc1 [MMV665881]
[5]
  EC50: 330 nM

## OC(CNC1CCCCC1)Cn1c2ccc(I)cc2c2cc(I)ccc21 (stereo not shown) [MMV665882]
[5]
  EC50: 337 nM

## O=C(Nc1cccc(-c2nc3ccccc3[nH]2)c1)c1cccc(NC(=O)c2ccco2)c1 [MMV665883]
[6]
  percent_inh @ 5 uM: 95%
[9]
  EC50: 745 nM
[4]
  EC50: 360 nM

## CC(Oc1ccc(NC(=O)c2cccs2)cc1)C(=O)c1ccc(Cl)cc1 (stereo not shown) [MMV665886]
[5]
  EC50: 774 nM

## O=C(Nc1ccccc1O)c1ccc(Oc2cccc(C(=O)Nc3ccccc3O)c2)cc1 [MMV665888]
[7]
  percent_inh @ 5 uM: 91%
[8]
  EC50: 799 nM

## COc1ccc(-c2nonc2NC(=O)c2cccc(C)c2)cc1OC [MMV665890]
[7]
  percent_inh @ 5 uM: 95%
[8]
  EC50: 806 nM

## c1ccc(-c2ccc(-c3nc4ccccc4[nH]3)cc2)cc1 [MMV665891]
[7]
  percent_inh @ 5 uM: 52%
[10]
  EC50: 1070 nM
[8]
  EC50: 809 nM

## CC(=O)c1sc(NC(=O)Nc2ccc(C)cc2C)nc1C [MMV665894]
[5]
  EC50: 906 nM

## COc1ccc2nc(N)nc(C)c2c1 [MMV665897]
[6]
  percent_inh @ 5 uM: 63%
[4]
  EC50: 927 nM

## COc1cc(C(=O)Nc2ccc(-c3nc4ccccc4[nH]3)cc2)cc(OC)c1OC [MMV665898]
[5]
  EC50: 982 nM

## O=C(c1ccccc1F)N(Cc1ccc(Cl)cc1)c1ccccn1 [MMV665899]
[7]
  percent_inh @ 5 uM: 59%
[8]
  EC50: 1020 nM

## O=C(Nc1ccc(CN2CCOCC2)cc1)c1ccc(-c2ccc(Br)cc2)o1 [MMV665901]
[7]
  percent_inh @ 5 uM: 96%
[10]
  EC50: 1360 nM
[8]
  EC50: 1120 nM

## N=c1n(CCN2CCCCC2)c2ccccc2n1CC(O)c1cccc(Br)c1 (stereo not shown) [MMV665902]
[7]
  percent_inh @ 5 uM: 98%
[10]
  EC50: 893 nM
[8]
  EC50: 1140 nM

## COCCn1c(C)nc2ccccc2c1=O [MMV665904]
[6]
  percent_inh @ 5 uM: 59%
[4]
  EC50: 1460 nM

## Cc1ccc(-c2cc(C(=O)Nc3ccc(S(=O)(=O)N4CCCCC4)cc3)[nH]n2)c(O)c1 [MMV665906]
[7]
  percent_inh @ 5 uM: 94%
[10]
  EC50: 535 nM
[8]
  EC50: 1770 nM

## COc1ccc(N2CCN(C(CNC(=O)CC(C)(C)C)c3ccc4c(c3)OCO4)CC2)cc1 (stereo not shown) [MMV665908]
[6]
  percent_inh @ 5 uM: 95%
[11]
  EC50: 4280 nM

## O=C(Nc1nc(-c2ccccn2)cs1)c1ccccc1Br [MMV665909]
[1]
  percent_inh @ 5 uM: 97%
[2]
  EC50: 1360 nM
[11]
  EC50: 4530 nM

## CCOc1ccc(-c2nc(NC(=O)c3cccc(S(C)(=O)=O)c3)sc2C)cc1 [MMV665913]
[7]
  percent_inh @ 5 uM: 95%
[8]
  EC50: 15000 nM

## COc1ccccc1N1CCN(C(CNS(=O)(=O)c2ccc(Cl)cc2)c2cccnc2)CC1 (stereo not shown) [MMV665914]
[7]
  percent_inh @ 5 uM: 93%
[8]
  EC50: 15000 nM

## COc1ccc(-c2nc(NC(=O)CS(=O)(=O)c3ccc(F)cc3)sc2C)cc1 [MMV665915]
[1]
  percent_inh @ 5 uM: 97%
[2]
  EC50: 448 nM
[3]
  EC50: 212 nM
[4]
  EC50: 243 nM

## COc1ccccc1CNC(=O)CCn1c(=O)[nH]c2ccccc2c1=O [MMV665916]
[1]
  percent_inh @ 5 uM: 64%
[2]
  EC50: 72.6 nM
[3]
  EC50: 537 nM

## O=C(Nc1ccc(Cl)cc1)N1CCN(c2ccc3nncn3n2)CC1 [MMV665917]
[1]
  percent_inh @ 5 uM: 62%
[3]
  EC50: 2060 nM

## O=C(CSc1ccc2nnc(-c3cccc(F)c3)n2n1)Nc1ccc2c(c1)OCO2 [MMV665918]
[7]
  percent_inh @ 5 uM: 92%
[8]
  EC50: 2110 nM

## N=c1c2ccccc2nnn1-c1cccc(C(F)(F)F)c1 [MMV665923]
[5]
  EC50: 134 nM

## COc1ccc(C(=O)C2CC2c2ccc(Cl)cc2)cc1 (stereo not shown) [MMV665924]
[6]
  percent_inh @ 5 uM: 94%
[9]
  EC50: 1060 nM
[3]
  EC50: 217 nM

## O=C(CCl)NCCOc1ccc(Cl)cc1Cl [MMV665927]
[5]
  EC50: 538 nM

## CCC(C)NCC(O)(c1ccc(Cl)cc1)c1ccc(Cl)cc1 (stereo not shown) [MMV665928]
[1]
  percent_inh @ 5 uM: 98%
[2]
  EC50: 642 nM
[3]
  EC50: 639 nM
[4]
  EC50: 843 nM

## CCCCNCC(O)(c1ccc(Cl)cc1)c1ccc(Cl)cc1 [MMV665929]
[7]
  percent_inh @ 5 uM: 97%
[10]
  EC50: 843 nM
[8]
  EC50: 720 nM

## O=C1c2ccccc2-c2nnc(-c3ccc(Br)cc3)cc21 [MMV665934]
[6]
  percent_inh @ 5 uM: 99%
[9]
  EC50: 1070 nM
[3]
  EC50: 2500 nM

## FC(F)(F)c1ccc(Nc2nnnc3ccccc23)cc1 [MMV665935]
[7]
  percent_inh @ 5 uM: 77%

## Cc1ccc(S(=O)(=O)c2c(COC(=O)c3cccc(C)c3)c(-c3ccccc3)nn2C)cc1 [MMV665936]
[6]
  percent_inh @ 5 uM: 95%
[3]
  EC50: 8400 nM

## O=C(Nc1ccsc1C(=O)NC1CCCCC1)c1ccc(F)cc1 [MMV665939]
[7]
  percent_inh @ 5 uM: 86%
[8]
  EC50: 1210 nM

## CCOc1ccc(C=Cc2nc(=O)c3ccccc3o2)cc1 [MMV665940]
[1]
  percent_inh @ 5 uM: 95%
[2]
  EC50: 560 nM
[11]
  EC50: 188 nM

## CN(C)c1ccc(C(O)(c2ccc(N(C)C)cc2)c2ccc(N(C)C)cc2)cc1 [MMV665941]
[1]
  percent_inh @ 5 uM: 96%
[2]
  EC50: 255 nM
[11]
  EC50: 620 nM

## Nc1ccc(-c2nc3cc(Cc4ccc5[nH]c(-c6ccc(N)cc6)nc5c4)ccc3[nH]2)cc1 [MMV665943]
[6]
  percent_inh @ 5 uM: 100%
[9]
  EC50: 1420 nM
[3]
  EC50: 243 nM
[4]
  EC50: 512 nM
[11]
  EC50: 1080 nM

## COc1ccc(CN2CCN(Cc3ccccc3)CC2)c(O)c1 [MMV665944]
[6]
  percent_inh @ 5 uM: 96%
[9]
  EC50: 1080 nM
[11]
  EC50: 1090 nM

## CC(C)=CCN1CCC(C(=O)Nc2ccc(-c3nc4ccccc4[nH]3)cc2)CC1 [MMV665946]
[7]
  percent_inh @ 5 uM: 96%
[10]
  EC50: 1160 nM

## O=C(Nc1ccccc1O)c1ccc(-c2ccc(Cl)cc2Cl)o1 [MMV665948]
[7]
  percent_inh @ 5 uM: 97%
[8]
  EC50: 2460 nM

## Oc1ccc(C(=C(Cl)Cl)c2ccc(O)cc2)cc1 [MMV665949]
[6]
  percent_inh @ 5 uM: 95%
[11]
  EC50: 2470 nM

## O=C(Nc1ccc(F)c(Cl)c1)Nc1ccc(Cl)c(Cl)c1 [MMV665953]
[7]
  percent_inh @ 5 uM: 95%
[10]
  EC50: 2060 nM
[8]
  EC50: 5410 nM

## O=C(NCC1Cc2cccc(-c3ccncc3)c2O1)c1csc2c1CCCC2 (stereo not shown) [MMV665954]
[7]
  percent_inh @ 5 uM: 87%
[10]
  EC50: 1720 nM
[8]
  EC50: 8740 nM

## CCN(CC)CCCNc1nc(-c2ccc(Cl)cc2)nc2ccccc12 [MMV665961]
[7]
  percent_inh @ 5 uM: 92%
[8]
  EC50: 15000 nM

## COc1cccc(C(=O)NC(c2ccc(C)cc2)c2cc(Cl)c3cccnc3c2O)c1 (stereo not shown) [MMV665969]
[6]
  percent_inh @ 5 uM: 97%
[9]
  EC50: 393 nM
[11]
  EC50: 15000 nM

## CCOC(=O)C1=C(C)N=c2sc(=Cc3cc(Cl)ccc3O)c(=O)n2C1c1ccc(OC)cc1 (stereo not shown) [MMV665971]
[6]
  percent_inh @ 5 uM: 97%
[9]
  EC50: 489 nM
[4]
  EC50: 746 nM
[11]
  EC50: 15000 nM

## O=C(Cc1ccccc1)NC(c1ccc(Cl)cc1)c1c(O)ccc2ccccc12 (stereo not shown) [MMV665972]
[5]
  EC50: 15000 nM

## CCOC(=O)c1cn(CC)c2cc(N(C)CCc3ccc(OC)c(OC)c3)c(F)cc2c1=O [MMV665977]
[1]
  percent_inh @ 5 uM: 99%
[2]
  EC50: 205 nM
[3]
  EC50: 103 nM
[4]
  EC50: 425 nM

## FC(F)(F)c1cccc(CNC2CCN(CCc3ccccc3)CC2)c1 [MMV665979]
[1]
  percent_inh @ 5 uM: 96%
[2]
  EC50: 685 nM
[3]
  EC50: 174 nM

## OC1CCCCC1C1(NC(=S)Nc2ccccc2)CCCCC1 (stereo not shown) [MMV665980]
[6]
  percent_inh @ 5 uM: 59%
[3]
  EC50: 211 nM

## CCCCCCc1cc(O)c2c3c(c(=O)oc2c1)CCC(C)C3 (stereo not shown) [MMV665987]
[6]
  percent_inh @ 5 uM: 96%
[9]
  EC50: 534 nM
[3]
  EC50: 364 nM

## Cc1nc2ccccc2c(O)c1CC=C(Cl)Cl [MMV665994]
[6]
  percent_inh @ 5 uM: 89%
[9]
  EC50: 836 nM
[3]
  EC50: 498 nM

## CN1c2ccccc2N(C)C1c1ccc2c(c1)OCO2 [MMV666009]
[7]
  percent_inh @ 5 uM: 60%
[10]
  EC50: 994 nM
[8]
  EC50: 1120 nM

## Cc1ccc(OCCCCCCNCCO)c(C)c1 [MMV666020]
[6]
  percent_inh @ 5 uM: 49%
[3]
  EC50: 1970 nM

## Cc1ccc(-c2cc3c(nn2)-c2ccccc2C3=O)cc1 [MMV666021]
[1]
  percent_inh @ 5 uM: 99%
[2]
  EC50: 94.4 nM
[3]
  EC50: 2000 nM
